The values below are quoted from earlier work in patent publication US6013636A, “Anthelmintic macrocyclic lactone compositions” (Ashmont Holdings Limited, priority 1995, dated 2000).

For data set [1] the following is noted: sesame oil, soya bean oil and corn oil.

Consider `CO[C@H]1C[C@H](O[C@H]2[C@H](C)O[C@@H](O[C@@H]3/C(C)=C/C[C@@H]4C[C@@H](C[C@]5(C=C[C@H](C)[C@@H](C6CCCCC6)O5)O4)OC(=O)[C@@H]4C=C(C)[C@@H](O)[C@H]5OC/C(=C\C=C\[C@@H]3C)[C@]54O)C[C@@H]2OC)O[C@@H](C)[C@@H]1O` [doramectin], for which the Stability in water entry is “oxidise and break down in water”. The Solubility in oils entry in data set [1] is listed as “sparingly soluble”.

For `CO/N=C1\C[C@]2(C[C@@H]3C[C@@H](C/C=C(\C)C[C@@H](C)/C=C/C=C4\CO[C@@H]5[C@H](O)C(C)=C[C@@H](C(=O)O3)[C@]45O)O2)O[C@H](/C(C)=C/C(C)C)[C@H]1C` [moxidectin], the Stability in water entry was “oxidise and break down in water”. In addition, in data set [1], the Solubility in oils entry was “sparingly soluble”.

With ivermectin, the Stability in water entry was “oxidise and break down in water”. Besides, in data set [1], the Solubility in oils result is on record as “sparingly soluble”.
